Drawing on paper PMC7305236, “The atypical chemokine receptor ACKR3/CXCR7 is a broad-spectrum scavenger for opioid peptides” (Nature Communications, 2020), this text covers activation for four compounds.

Read-outs that look alike come from different tables or passages of the source. Starred links: 1 amine or outer side, 2 acyl side, 3 side chain; linkers in the order of their positions; H or OH if unused. Non-standard residues stand in square brackets, D forms with d. Residues, ends and D or L forms follow the SMILES beside them. X1 = N[C@@H](Cc1ccccc1)CN(CC(=O)[*:2])[*:1]

Design in all cases: dose or concentration left out as unconfirmed
One test concerns the target T1, CCR10 (Homo sapiens, UniProt P46092).
T1 construct: expressed in transfected cells
T1 sequence (P46092 1-362): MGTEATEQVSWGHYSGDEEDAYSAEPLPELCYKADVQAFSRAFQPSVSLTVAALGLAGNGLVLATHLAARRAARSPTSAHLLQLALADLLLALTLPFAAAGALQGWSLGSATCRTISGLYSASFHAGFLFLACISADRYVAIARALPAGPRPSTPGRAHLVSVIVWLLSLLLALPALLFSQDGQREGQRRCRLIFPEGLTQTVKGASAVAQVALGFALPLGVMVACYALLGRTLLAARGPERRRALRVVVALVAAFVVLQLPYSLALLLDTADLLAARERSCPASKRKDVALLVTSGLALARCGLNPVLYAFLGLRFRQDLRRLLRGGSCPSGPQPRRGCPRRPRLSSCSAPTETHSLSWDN
Kind of test: Figure S2a opioid peptide screen on chemokine receptors. The class given is cell-based.

Another test addresses T2, CXCR3A (Homo sapiens, UniProt P49682).
T2 construct: expressed in transfected cells; host or cells: U87 cells
T2 sequence (P49682 1-368): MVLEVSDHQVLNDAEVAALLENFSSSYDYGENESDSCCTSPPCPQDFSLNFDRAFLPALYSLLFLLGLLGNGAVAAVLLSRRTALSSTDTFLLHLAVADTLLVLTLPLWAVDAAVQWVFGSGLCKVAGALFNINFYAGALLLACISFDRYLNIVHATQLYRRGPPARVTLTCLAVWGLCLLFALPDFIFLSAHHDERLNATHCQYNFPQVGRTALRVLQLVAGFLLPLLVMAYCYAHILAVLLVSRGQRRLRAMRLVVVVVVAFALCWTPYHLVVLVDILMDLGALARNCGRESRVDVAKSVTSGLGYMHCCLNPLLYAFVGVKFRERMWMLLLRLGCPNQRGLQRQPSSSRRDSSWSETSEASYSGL
The description is as above. The class given is cell-based.

In a further test the target is T3, CXCR4 (Homo sapiens, UniProt P61073).
T3 construct: expressed in transfected cells; host or cells: U87, transient cotransfection of pNBe vectors
Put plainly: cell-based.

For a further test, the target named is T4, XCR1 (Homo sapiens, UniProt P46094).
T4 construct: expressed in transfected cells
T4 sequence (P46094 1-333): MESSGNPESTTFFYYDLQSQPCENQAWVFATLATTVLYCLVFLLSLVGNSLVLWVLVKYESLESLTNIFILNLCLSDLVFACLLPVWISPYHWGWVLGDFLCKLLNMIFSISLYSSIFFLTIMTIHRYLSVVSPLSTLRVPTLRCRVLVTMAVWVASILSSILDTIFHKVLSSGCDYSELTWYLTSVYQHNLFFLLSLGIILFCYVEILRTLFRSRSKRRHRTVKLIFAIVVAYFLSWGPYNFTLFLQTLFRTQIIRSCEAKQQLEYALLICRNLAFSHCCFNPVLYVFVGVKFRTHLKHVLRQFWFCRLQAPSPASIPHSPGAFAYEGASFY
Put plainly: Figure S2a opioid peptide screen on chemokine receptors. The class given is cell-based.

A further test has as its target T5, ACKR4 (Homo sapiens, UniProt Q9NPB9).
T5 sequence (Q9NPB9 1-350): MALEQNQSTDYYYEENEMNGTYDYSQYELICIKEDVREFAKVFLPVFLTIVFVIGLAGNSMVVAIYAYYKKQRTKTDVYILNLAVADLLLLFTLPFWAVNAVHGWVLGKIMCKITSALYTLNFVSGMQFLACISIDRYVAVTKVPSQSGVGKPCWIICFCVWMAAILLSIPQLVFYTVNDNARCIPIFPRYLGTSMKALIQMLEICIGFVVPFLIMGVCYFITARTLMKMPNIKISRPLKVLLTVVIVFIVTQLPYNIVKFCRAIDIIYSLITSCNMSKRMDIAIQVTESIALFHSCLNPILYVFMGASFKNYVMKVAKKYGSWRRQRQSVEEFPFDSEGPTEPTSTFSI
Described as above. Particulars: read-out: ACKR4 activity, ctrl+ = 100, Figure S2a.

The next test has as its target ACKR3 (Homo sapiens, UniProt P25106). Put plainly: cell-based. Particulars: read-out: ACKR3 activity, ctrl+ = 100, Figure S2a.
The target of a further test is T6, CCR5 (Homo sapiens, UniProt P51681).
T6 construct: expressed in transfected cells
Put plainly: Figure S2a opioid peptide screen on chemokine receptors. The class given is cell-based.

The mark [1] stands for this setting: replicate 1, read-out: CCR10 activity, ctrl+ = 100.
[2] abbreviates: replicate 2, read-out: CCR10 activity, ctrl+ = 100.
Where [3] appears, read: replicate 3, read-out: CCR10 activity, ctrl+ = 100.
Setting [4] is: replicate 1, read-out: CXCR3A activity, ctrl+ = 100.
Where [5] appears, read: replicate 2, read-out: CXCR3A activity, ctrl+ = 100.
Where [6] appears, read: replicate 3, read-out: CXCR3A activity, ctrl+ = 100.
Setting [7] is: replicate 1, read-out: XCR1 activity, ctrl+ = 100.
The mark [8] stands for this setting: replicate 2, read-out: XCR1 activity, ctrl+ = 100.
Setting [9] is: replicate 3, read-out: XCR1 activity, ctrl+ = 100.
Setting [10] is: replicate 1, read-out: CCR5 activity, ctrl+ = 100.
[11] abbreviates: replicate 2, read-out: CCR5 activity, ctrl+ = 100.
Where [12] appears, read: replicate 3, read-out: CCR5 activity, ctrl+ = 100.
Setting [13] is: Figure S2a, replicate 1, read-out: CXCR4 activity, ctrl+ = 100.
Setting [14] is: Figure S2a, replicate 2, read-out: CXCR4 activity, ctrl+ = 100.
The mark [15] stands for this setting: Figure S2a, replicate 3, read-out: CXCR4 activity, ctrl+ = 100.

Sequence of ACKR3 (P25106 whole entry): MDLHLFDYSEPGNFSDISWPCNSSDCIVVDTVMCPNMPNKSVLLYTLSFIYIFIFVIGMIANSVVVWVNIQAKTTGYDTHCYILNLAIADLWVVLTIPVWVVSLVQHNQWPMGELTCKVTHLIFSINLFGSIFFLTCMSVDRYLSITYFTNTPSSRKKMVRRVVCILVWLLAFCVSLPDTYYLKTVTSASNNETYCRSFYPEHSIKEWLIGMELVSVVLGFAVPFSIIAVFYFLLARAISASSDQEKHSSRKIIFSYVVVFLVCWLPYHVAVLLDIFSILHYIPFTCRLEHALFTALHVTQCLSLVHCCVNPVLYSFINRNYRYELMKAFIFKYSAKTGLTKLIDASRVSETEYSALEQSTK
T6 sequence (P51681 whole entry): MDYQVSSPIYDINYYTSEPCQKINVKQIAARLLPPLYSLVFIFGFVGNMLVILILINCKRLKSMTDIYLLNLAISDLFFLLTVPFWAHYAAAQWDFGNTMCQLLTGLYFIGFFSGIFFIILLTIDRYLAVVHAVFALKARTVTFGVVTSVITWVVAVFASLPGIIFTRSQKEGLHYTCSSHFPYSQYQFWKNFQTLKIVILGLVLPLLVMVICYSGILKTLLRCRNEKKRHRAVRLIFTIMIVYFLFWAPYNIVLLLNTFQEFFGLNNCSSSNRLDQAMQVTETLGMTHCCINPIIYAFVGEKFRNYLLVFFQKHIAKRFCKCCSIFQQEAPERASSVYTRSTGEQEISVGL
T3 sequence (P61073 whole entry): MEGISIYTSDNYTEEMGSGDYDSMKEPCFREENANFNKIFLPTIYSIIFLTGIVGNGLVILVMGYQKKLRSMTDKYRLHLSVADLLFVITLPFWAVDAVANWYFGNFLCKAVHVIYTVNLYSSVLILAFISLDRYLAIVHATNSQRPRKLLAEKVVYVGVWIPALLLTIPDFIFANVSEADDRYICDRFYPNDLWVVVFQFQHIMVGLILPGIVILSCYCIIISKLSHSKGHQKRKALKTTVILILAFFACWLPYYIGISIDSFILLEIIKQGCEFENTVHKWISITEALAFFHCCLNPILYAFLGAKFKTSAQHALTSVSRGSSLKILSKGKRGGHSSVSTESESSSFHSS

For the compound `CSCC[C@H](NC(=O)[C@H](Cc1ccccc1)NC(=O)CNC(=O)CNC(=O)[C@@H](N)Cc1ccc(O)cc1)C(=O)N[C@@H](CCCNC(=N)N)C(=O)N[C@@H](CCCNC(=N)N)C(=O)N[C@H](C(=O)NCC(=O)N[C@@H](CCCNC(=N)N)C(=O)N1CCC[C@H]1C(=O)N[C@@H](CCC(=O)O)C(=O)N[C@@H](Cc1c[nH]c2ccccc12)C(=O)N[C@@H](Cc1c[nH]c2ccccc12)C(=O)N[C@@H](CCSC)C(=O)N[C@@H](CC(=O)O)C(=O)N[C@@H](Cc1ccc(O)cc1)C(=O)N[C@@H](CCC(N)=O)C(=O)N[C@@H](CCCCN)C(=O)N[C@@H](CCCNC(=N)N)C(=O)N[C@@H](Cc1ccc(O)cc1)C(=O)NCC(=O)O)C(C)C` [BAM22], the activation on CCR10 (setting [1]) was -2.23%; on CCR10 (setting [2]), -4.92%; at CCR10 (setting [3]), -3.25%; at CXCR3A (setting [4]), 3.44%; at CXCR3A (setting [5]), 2.11%; at CXCR3A (setting [6]), 7.49%. Further, the activation on CXCR4 (read-out: CXCR4 activity, ctrl+ = 100, Figure S2a, replicate 1) is 22.9%; on CXCR4 (read-out: CXCR4 activity, ctrl+ = 100, Figure S2a, replicate 2), 27.7%; at CXCR4 (read-out: CXCR4 activity, ctrl+ = 100, Figure S2a, replicate 3), -6.34%; at XCR1 (setting [7]), -2.25%; at XCR1 (setting [8]) it was -4.24%; at XCR1 (setting [9]), 8.51%. The activation on ACKR4 (replicate 1) was -4.56%; at ACKR4 (replicate 2), -1.96%; on ACKR4 (replicate 3), 5.51%; at ACKR3 (replicate 1) it was 104%; on ACKR3 (replicate 2) it was 61.3%; at ACKR3 (replicate 3) it was 104%. The activation at CCR5 (setting [10]) was 0.229%; at CCR5 (setting [11]) it was -1.32%; at CCR5 (setting [12]) it was -1.42%.
Turning to `CC(C)C[C@H](NC(=O)[C@H](CCCCN)NC(=O)[C@H](CCCN=C(N)N)NC(=O)[C@H](C)NC(=O)[C@H](CO)NC(=O)[C@H](CCCCN)NC(=O)[C@H](CCCN=C(N)N)NC(=O)[C@H](C)NC(=O)CNC(=O)[C@@H](NC(=O)[C@H](Cc1ccccc1)NC(=O)CNC(=O)CNC(=O)[C@@H](N)Cc1ccccc1)[C@@H](C)O)C(=O)N[C@@H](C)C(=O)N[C@@H](CC(N)=O)C(=O)N[C@@H](CCC(N)=O)C(=O)O` [Nociceptin], the activation is -2.56% on CCR10 (setting [1]); -4.7% on CCR10 (setting [2]); -2.21% on CXCR3A (setting [4]); -5.51% at CXCR3A (setting [5]); 3.24% at CXCR4 (setting [13]); -19.8% at CXCR4 (setting [14]). Moreover, the activation at XCR1 (setting [7]) is 1.08%; on XCR1 (setting [8]), -2.39%; on ACKR4 (replicate 1) it was -1%; at ACKR4 (replicate 2) it was -5.23%; on ACKR3 (replicate 2), 1.08%; at CCR5 (setting [10]), 1.59%. Besides, the activation on CCR5 (setting [11]) was -0.199%.
Take `CC[C@H](C)[C@H](NC(=O)[C@H](CCCNC(=N)N)NC(=O)[C@H](CCCNC(=N)N)NC(=O)[C@H](CC(C)C)NC(=O)[C@H](Cc1ccccc1)NC(=O)CNC(=O)CNC(=O)[C@@H](N)Cc1ccc(O)cc1)C(=O)N[C@@H](CCCNC(=N)N)C(=O)N1CCC[C@H]1C(=O)N[C@@H](CCCCN)C(=O)N[C@@H](CC(C)C)C(=O)N[C@@H](CCCCN)C(=O)N[C@@H](Cc1c[nH]c2ccccc12)C(=O)N[C@@H](CC(=O)O)C(=O)N[C@@H](CC(N)=O)C(=O)N[C@@H](CCC(N)=O)C(=O)O` [Dynorphin A]: the activation on CCR10 (setting [1]) was 2.9%; on CCR10 (setting [2]) it was -7.47%; at CCR10 (setting [3]), 4.56%; at CXCR3A (setting [4]) it was -4.75%; on CXCR3A (setting [5]), -3.36%; on CXCR3A (setting [6]), 7.92%. Moreover, the activation on CXCR4 (setting [13]) is -6.67%; at CXCR4 (setting [14]) it was -56.8%; on CXCR4 (setting [15]), 36.5%; on XCR1 (setting [7]), 4.69%; at XCR1 (setting [8]), 7.1%; at XCR1 (setting [9]), 11%. The activation on ACKR4 (replicate 1) is -2.58%; at ACKR4 (replicate 2), -4.52%; on ACKR4 (replicate 3), 0.188%; on ACKR3 (replicate 1), 127%; at ACKR3 (replicate 2), 60.7%; at ACKR3 (replicate 3), 99%. Moreover, the activation on CCR5 (setting [10]) was 2.19%; at CCR5 (setting [11]), -1.33%; at CCR5 (setting [12]) it was 2.35%.
`C[C@H](NC(=O)CNC(=O)[C@@H](NC(=O)[C@H](Cc1ccccc1)NC(=O)CNC(=O)CNC[C@@H](N)Cc1ccccc1)[C@@H](C)O)C(=O)N[C@@H](CCCNC(=N)N)C(=O)N[C@@H](CCCCN)C(=O)N[C@@H](CO)C(=O)N[C@@H](C)C(=O)N[C@@H](CCCNC(=N)N)C(=O)N[C@@H](CCCCN)C(N)=O` [FG Nociceptin 1-13] (H-[X1]GFTGARKSARK-NH2): the activation at CCR10 (setting [1]) is -1.11%; on CCR10 (setting [2]), -2.39%; at CCR10 (setting [3]), 7.95%; on CXCR3A (setting [4]), 2.13%; at CXCR3A (setting [5]), -1.45%; at CXCR3A (setting [6]), -3.37%. Moreover, the activation was 1.4% on CXCR4 (setting [13]); -4.91% at CXCR4 (setting [14]); 27.5% at CXCR4 (setting [15]); 0.7% on XCR1 (setting [7]); 1.1% on XCR1 (setting [8]); 16.8% on XCR1 (setting [9]). The activation on ACKR4 (replicate 2) is -0.784%; on ACKR4 (replicate 3), 0.45%; at ACKR3 (replicate 1) it was 61.5%; on ACKR3 (replicate 2), 58.4%; on ACKR3 (replicate 3), 66%; at CCR5 (setting [10]) it was -0.325%. Besides, the activation on CCR5 (setting [11]) is 0.224%; on CCR5 (setting [12]) it was 0.582%.
